SMILES strings stand for the structures.

For `O=C1CN(c2ccccc2)C(=S)N1C1CCCCC1`, the melting point was found to be 156 °C. To `COC(=O)c1ccccc1NC(=O)CNc1ccccc1` belongs 140 to 142 °C; to `COC(=O)C(=C(/C)c1cc(OC)cc(OC)c1)/C(=C\c1cc(OC)cc(OC)c1)C(=O)O`, 137 to 140 °C; to `Clc1cc2c(nc1-c1ccccc1Br)OCC2`, 106 to 117 °C. Consider `NC(=O)/C=C/C1=CC=CC(F)(C(F)(F)F)C1` (stereo not given), for which the melting point was in the range of 121 to 122 °C.

Take `CC(C)Oc1ccc2c(c1)OCC1c3ccccc3OC21` (stereo not given): the melting point lay in the range of 100 to 102 °C. `O=C(Nc1nc2n(n1)Cc1ccccc1-2)c1ccccc1`: the melting point was in the range of 220 to 221 °C. In turn, `CCCN(CC(=O)Nc1c(SC)nc(C)nc1N(CC)CC)c1ccccc1` came in with a melting point of 173 to 175 °C.

As for `Nc1ncc(CCC2CCCC2)s1`, the melting point was 77 to 78 °C. Compound `CCOC(=O)c1c(CN(CC)CC)nc2sc3c(c2c1-c1ccc(OC)c(OC)c1)CCN(C(=O)OCC)C3` had a melting point of 119 to 120 °C. As for `COc1cccc(-c2c(Cl)c(CN3CCOCC3)nc3sc4c(c23)CCN(Cc2ccccc2)C4)c1OC`, the figure is 176 to 177 °C; as for `Nc1ncnc2c1c(-c1ccc(Oc3ccccc3)cc1)cn2[C@H]1CC[C@@H](N2CCCCC2)CC1`, 192 to 195 °C. The compound `Cc1ccc(S(=O)(=O)NC(=O)NCCC(F)=C(F)F)cc1` came in with a melting point of 134 to 136 °C.

In turn, `COc1cccc2c(=O)[nH]c(C)nc12` yielded a melting point of 261 to 262 °C. Compound `CC(=O)Nc1cccc2c1C(=O)c1c-2n[nH]c1-c1ccc(C(F)(F)F)cc1` registered a melting point of more than 300 °C. To `CCN(C(=O)CN(C(=O)CNC(=O)Nc1cccc(C)c1)c1ccccc1)c1ccccc1` belongs 158 °C; to `COc1cc(OC)c2c(=O)c(OCCOc3ccc(C(C)=C4SC(=O)NC4=O)cc3)c(-c3ccc(OC)c(OC)c3)oc2c1`, 205 to 206 °C.

`C=CCN(CC)c1ccc2[nH]c3cnc(C(=O)OCC)cc3c2c1`: the melting point was in the range of 190 to 192 °C.

For the compound `O=C(O)C(=O)c1ccc(OCCOc2cc3ccccc3cc2OCCOc2ccccc2)cc1`, the melting point lay in the range of 176 to 177 °C. `CS(=O)(=O)c1ccc(-c2nc(C(F)(F)F)nc(OS(=O)(=O)c3cccc4ccccc34)c2-c2ccccc2)cc1` displayed a melting point of 204 to 206 °C. `CC(C)C(O)(C#Cc1ccsc1)c1cncnc1` (stereo not given) showed a melting point of 102 to 105 °C. In turn, `Nc1ccc(N2CCN(Cc3ccccc3)CC2)nc1CS(=O)(=O)c1ccccc1` displayed a melting point of 175 to 176 °C. `CCS(=O)(=O)N1CCSc2cccc(Cl)c2C1` showed a melting point of 126 to 128 °C. To `CCOC(=O)c1cc(NCc2ccccc2)c(Nc2cccc(C(F)(F)F)c2)c(S(N)(=O)=O)c1` belongs 189 to 190 °C; to `CCOc1ccc2[nH]c(=O)n(C34CC5CC(CC(C5)C3)C4)c2c1`, 146 °C.

`O=CNC(c1cccc(Cl)c1)c1ccnc2ccccc12` (stereo not given) yielded a melting point of 136 °C. To `CCCCCCCCCCCCN1CN=C(NC(=O)Nc2c(C(C)C)cccc2C(C)C)N1` belongs 128 to 140 °C. For the compound `CCOCCNC(=O)c1ccc(-c2ccc(C(CC3CCOCC3)c3ccc(S(=O)(=O)C4CC4)cc3)[nH]2)nc1` (stereo not given), the melting point is 87 to 90 °C. `Cc1ccc2[nH]c(-c3ccccc3O)cc2c1` showed a melting point of 211 to 215 °C. In the case of `CS(=O)(=O)c1ccc(Oc2ccc(Br)cc2)cc1`, the melting point lay within 128 to 129 °C. For `O=C1CCC(c2ccc(Cl)cc2)N1c1ccccc1` (stereo not given), the melting point was in the range of 82.5 to 83.5 °C. With `Cc1noc(NS(=O)(=O)c2ccc(-c3ccccc3)cc2)c1C`, the melting point was in the range of 154 to 155 °C. `O=C(Nc1cc(Cl)c(O)c(Cl)c1)c1ccccc1O` came in with a melting point of 217 to 219 °C. On to `CCOC(=O)CCc1cc(Cl)ccc1C(=O)CCCNC(N)=O`, for which the melting point lay in the range of 127 to 129 °C.

As to `COc1ccc2c(c1)N(CCCN1CCC(CCO)CC1)c1cccc(S(C)(=O)=O)c1S2`, the melting point is 117 to 118 °C. To `COc1ccc2c(C#N)c(-c3ncc(S(=O)(=O)NC(CF)CF)cn3)n(C3CCC3)c2n1` belongs 229 to 230 °C; to `CN(CC(=O)OC(C)(C)C)Cc1ccc(CCn2cnc3cc(-c4ccc(Cl)cc4)sc3c2=O)cc1`, 130 °C. `C[C@@H](Nc1nc(Nc2cccc(NS(C)(=O)=O)c2)nc2[nH]ccc12)C(C)(C)C` registered a melting point of 125 to 128 °C. On to `Cc1ccc(-c2ccc3c(c2)C=C(CO)CCO3)cc1`, for which the melting point is 91 to 92 °C. In turn, `CC(Cc1c[nH]c2ccccc12)NC(=O)C=C1CCC(c2cccc(F)c2)(N(C)C)CC1` (stereo not given) registered a melting point of 163 to 166 °C. For `CCN1c2ncc(CCc3cccc(N)c3)cc2C(=O)N(C)c2cccnc21`, the melting point was in the range of 129 to 131 °C. `O=[N+]([O-])c1ccc(CNc2ccccn2)cc1` yielded a melting point of 131 to 132 °C. `O=C(COc1ccccc1)NC1C(=O)N2C(C(=O)OCc3ccccc3)N=CSC12` (stereo not given): the melting point was 142 to 143 °C. Consider `NCCCCCNc1ncc2ncnc(Nc3ccc(F)c(Cl)c3)c2n1`, for which the melting point was in the range of 153 to 155 °C. In turn, `O=C(Nc1ccccc1)n1[nH]c(C(F)(F)F)cc1=O` showed a melting point of 109 to 110 °C. The compound `Cc1c(CN2CCc3[nH]c4ccccc4c3C2=O)ncn1C(c1ccccc1)(c1ccccc1)c1ccccc1` showed a melting point of 235 to 236 °C. Consider `NS(=O)(=O)OCCCCOc1ccccc1`, for which the melting point was in the range of 76 to 77 °C.

Compound `CCC(CC)c1ccc(Cl)c2nc3n(c12)CCCN3c1cnc(N(C)C)cc1C` yielded a melting point of 228 to 230 °C.

With `COC(=O)c1scc(Cl)c1O`, the melting point was determined as 78 °C. In the case of `COc1cc(C(C)N(O)C(N)=O)cc(OC)c1OC(C)c1ccccc1` (stereo not given), the melting point lay within 129 to 132 °C. `O=C(O)CS(=O)(=O)c1cccc(-c2nc(=O)c3ccccc3s2)n1` returned a melting point of 192 to 194 °C. As to `O=C(NCc1ccco1)c1cc2ccnc(Cl)c2[nH]1`, the melting point is 205 to 209 °C. To `Cn1c(=O)[nH]c(=O)c2c1ncn2CC#N` belongs 285 to 287 °C; to `CCOC(OCC)c1cc(NC(c2ccccc2)(c2ccccc2)c2ccccc2)c(F)c(C(C)(C)C)n1`, 168 to 170 °C; to `O=Cc1nn(-c2ccc(Cl)cc2)nc1-c1ccccc1`, 110 to 111 °C. As for `COc1ccc(-c2cc(CO)c(=O)n(Cc3ccc(Cl)cc3)n2)cc1F`, the figure is 165 °C; as for `COc1nc2ccccc2nc1NC(=O)N1CCN(c2c(C)c(C)cc(C)c2C)CC1`, 237 to 239 °C. `c1cc2c3c(cccc3c1)C(NCCCCn1ccnc1)=N2`: the melting point lay in the range of 225 to 230 °C. Consider `Cc1c(C(=O)c2ccc(Br)c3ccccc23)c2cccc(C(F)(F)F)c2n1CCN1CCOCC1`, for which the melting point came to 160 °C. `Sc1nc2ccccc2n1Cc1cc(Cl)cc(Cl)c1` yielded a melting point of 233 °C. With `Nc1cc(OCCC2CCCCC2)nc(N)n1`, the melting point turned out to be 142 °C. Consider `CCCCCC1CC=C(c2ccc(Br)cc2)CC1` (stereo not given), for which the melting point fell in the range of 67 to 68 °C.

As to `CCS(=O)(=O)Nc1cc(-c2nc[nH]c(=O)c2Cl)c(F)cc1C#N`, the melting point lay in the range of 249 to 252 °C. As for `CCOC(=O)C1(c2ccccc2)CCN(CCO)CC1`, the figure is 91.5 to 93 °C; as for `CC(=O)Nc1cc([N+](=O)[O-])ccc1OCCCN(C)C`, 69 °C; as for `Cc1c(-c2ccccc2)oc2c(CNC(=O)CCl)cccc2c1=O`, 152 to 155 °C. The compound `CC(C)(C)NC(=O)c1cc(Br)c(Br)s1` displayed a melting point of 190 °C. With `CSc1cc2c(cc1C(F)(F)F)N(C(=O)Nc1cccc(-c3csc(-c4cccnc4)n3)c1)CC2`, the melting point was 154 to 155 °C. As for `O=[N+]([O-])c1cc2c(c([N+](=O)[O-])c1)CCCC2`, the figure is 93 °C; as for `CCC(=O)c1cc(C2(c3cccc(Br)c3)N=C(N)N(C)C2=O)cn1CC` (stereo not given), 100 to 102 °C; as for `N#CCCNC(=O)c1cccc(Br)c1`, 100 to 101 °C. For the compound `C=CCN1CC(=O)N(c2cc(Cl)ccc2C)C1=S`, the melting point is 106 to 109 °C. The compound `CCOc1cc(C(=O)N2CCc3cc(O)ccc3C2)cc(OCC)c1OCC` returned a melting point of 158 °C.

Consider `Cc1ccc(Cl)c(C(N)=O)c1N`, for which the melting point was 149 to 152 °C. As for `COc1ccc2c(c1)C(C)N(C)C(=O)C2c1cc(OC)c(OC)c(OC)c1` (stereo not given), the melting point lay within 135 to 140 °C.

`CC(C)Oc1ccc(-c2nc3n(c2-c2ccncc2)CCC3)cc1`: the melting point was in the range of 148 to 150 °C. In turn, `CC(C)c1cccc(C(C)C)c1NC(=O)[C@H](Cc1ccccc1)NC(=O)OCC1c2ccccc2-c2ccccc21` yielded a melting point of 210 to 212 °C.

Take `COC(=O)c1c(OC)ccc2ccccc12`: the melting point fell in the range of 175 to 176 °C. For `COC(=O)c1ccc(Cc2cn(C)c3ccc(C=O)cc23)c(OC)c1`, the melting point was in the range of 116 to 118 °C.

On to `NC(=O)C(Nc1ncccc1[N+](=O)[O-])c1c(Cl)cccc1Cl` (stereo not given), for which the melting point turned out to be 207 °C.

For `CCCCOc1nc(N)c2[nH]c(=O)n(CCSc3cccc(CC(=O)O)c3)c2n1`, the melting point fell in the range of 205 to 207 °C. As to `O=C(CN1CCCC1)NCc1ccc2c(c1)-c1[nH]nc(-c3ccsc3)c1C2`, the melting point lay within 201 to 204 °C. On to `CCC1SC(c2ccncc2)=C(C)NC1=O` (stereo not given), for which the melting point fell in the range of 121 to 123 °C. Regarding `CCCc1nc(-n2cccc2)c(C#N)[nH]1`, the melting point fell in the range of 75 to 78 °C. As for `O=C(O)Cc1c(C(=O)c2cccc(Cl)c2)[nH]c2cc(Cl)ccc12`, the melting point was in the range of 199 to 201 °C.

Take `COc1ccc(Cl)c(NC(C)=S)c1`: the melting point was 92 to 93 °C. To `CC1(C)CCC(C)(C)c2cc(C#Cc3ccc(C(=O)O)cc3)ccc21` belongs 252 to 256 °C; to `O=c1ccc(-c2cc(F)c(OC3CCN(C4CCC4)CC3)c(F)c2)n[nH]1`, 195 to 197 °C.

In turn, `CC1(C)CC(=O)c2c(Sc3ccccc3)sc(C(=O)N3CCCC3)c2C1` registered a melting point of 140 °C. `O=C(c1cc(Br)c(O)c(Br)c1)c1c(Cc2ccccc2)oc2ccccc12` returned a melting point of 156 to 158 °C.

Source of the values: a melting point compilation (Tetko et al.; mined from patent text by program, amines drawn as free bases though some values may be those of a salt).
